# Reference: patent US20050106213A1, “Resorption-controlled bone implants” (priority 2001, published 2005)
# Key:
# [1] = test system: osteoclasts; experiment: Bafilomycin-doped CAP implant rods in ovariectomized aged rats (model of osteoporosis), histology; type: in vivo, rat; conditions: ovx aged Brown Norway rats, 75-100 μg per 500 mg CAP
# Experimental: Performance of the bafilomycin-doped implant was also assessed in a model of osteoporosis which utilizes ovarectomized aged rats. Successful integration of osseous implants with host bone tissue can be adversely affected by pathological bone conditions such as osteoporosis, which result in osteopenia due to disturbance of the balance between bone resorption and bone formation processes. Therefore, systemic bone loss due to estrogen deficiency may also affect bone growth and maintenance around the implants. Although current attention has been focused in the art on systemic fracture prevention and development of new therapies aimed at conserving bone mass, little emphasis has been given to increasing osteointegration of implants in osteoporotic defect site.
# The effects of ovariectomy on bone tissue formation and resorption of proton pump inhibitor (Bafilomycin A1)—modified resorbable CAP cement implants in comparison to the controls were studied.
# Ten-month old ovariectomized (ovx) virgin Brown Norway rats with were purchased from the National Institute on Aging (Bethesda, Md., USA), housed individually in light- and temperature-controlled rooms, and fed a restricted diet (6 pellets/day). These animals were kept for additional four months following the ovariectomy. […]
# [2] = test system: osteoclasts; experiment: CAP cement rods or pastes doped with Bafilomycin A1 implanted in rat femur defects, histology; type: in vivo
# From the text: The calcium phosphate precursor powder consisted of an equimolar mixture of DCPA and TTCP sterilized by gamma irradiation (20 kGy). Deionized double distilled water was obtained from a Millipore Milli-RO 10 Plus and Mill-Q UF Plus systems (Bedford, Mass., USA) operated at 18 MΩ resistance. The liquid phase was a neutral sodium hydrogen phosphate solution at pH 7.4, which was sterilized by filtration through 0.22 μm filters (Millipore Corp., Bedford, Mass., USA).
# (§1) Bafilomycin A1 was first dissolved in DMSO solution (other solutions that can be used are methanol and ethanol), and then dispersed in a neutral phosphate solution (pH 7.4) prepared from Na2HPO4 and NaH2PO4.
# After Bafilomycin A1 was dispersed in the biphasic liquid phase, the liquid phase was added to one of the solid components of the CAP, dicalcium phosphate anhydrous (DCPA). The DCPA was dissolved in the liquid phase and left at room temperature for 2 min with continuous mixing.
# Next, tetracalcium phosphate (TTCP) was gradually added to the first dissolved CAP component to produce a paste. The powder to liquid ratio (P/L) of the final CAP was 2.0 (wt/wt).
# The pastes were either implanted or used for the preparation of rods. Cement rods (1.9 mm diameter×2.3 mm height) were shaped by allowing aliquots of packed CPC pastes to set in custom made Teflon® formers for 24 h at 37C and 100% humidity and subsequently for 48 h at room temperature.
# Young male Wistar rats with an average body weight of 125-150 g were purchased from Charles River (QC, Canada), housed in light- and temperature-controlled rooms, and fed a standard diet. The maintenance and use of animals were in accordance with the Canadian Council of Animal Care Guidelines.
# Bone defects were drilled in the mid-diaphysis of the femur. The holes were made using a low speed dental drill (2.3 mm in diameter) with copious saline irrigation. Pre-hardened CPC rods were placed into the holes using gentle pressure. Every rat received two implants, a control rod (paste) in one femur and a rod (paste) containing Bafilomycin A1 in another femur. The animals were observed daily throughout the implantation period.
# After desired time in vivo, the animals were sacrificed, and the femurs were removed. The femurs were then exposed to a fixative solution for 48 h, decalcified in a 1:1 mixture of 45% formic acid and 20% sodium citrate, dehydrated and embedded in low-melting-point paraffin. Serial sections (6 μm thick) perpendicular to the long axis of the implant were obtained using a hard tissue Spencer 820 microtome. Sample sections were stained with hematoxylin-eosin (H&E) and Mason's trichrome stains. Representative sections were also tested for the presence of tartrate resistant acid phosphatase (TRAP) enzyme, characteristic of osteoclasts, to determine the identity of the cells at the material/bone interface.
# [3] = test system: osteoclasts; experiment: Bafilomycin-doped CAP implant rods in young and non-ovx aged Brown Norway rats (comparison groups), histology; set-up: species or system rat; conditions: young control group and non-ovx aged group; observed even at 4 months in vivo
# From the text: Ten-month old ovariectomized (ovx) virgin Brown Norway rats with were purchased from the National Institute on Aging (Bethesda, Md., USA), housed individually in light- and temperature-controlled rooms, and fed a restricted diet (6 pellets/day). These animals were kept for additional four months following the ovariectomy. Non-ovx virgin Brown Norway rats of the same age as the experimental rats at the time of implantation (fourteen months) were used as a control group for the ovx animals. Young virgin female Brown Norway rats (three months old) were used as another comparison group to assess the implant integration and resorption. The maintenance and use of animals were in accordance with the Canadian Council of Animal Care Guidelines.
# Production of the CAP implant doped with bafilomycin was performed as described above, i.e., resorbable CAP based on the TTCP and DCPA chemistry. Bafilomycin in concentration of 75-100 μg per 250 μL of liquid neutral phosphate phase per 500 mg of CAP was used.
# The implants were allowed to set to form pre-hardened implant rods. The implants were retrieved at 10 days, 1 month, 2 months, and 4 months post-surgery.
# [4] = Solubility of Bafilomycin A1 in solvent for liquid phase preparation; type: physicochemical; conditions: at 2.0×10^−3 M
# From the text: as §1
# [5] = test system: osteoclast proton pump; experiment: Calcibon cement rods doped with Panto IV implanted in femur of young Wistar rats, histology; type: in vivo, rat; conditions: 4 mg Panto IV per mL neutral phosphate solution per 500 mg Calcibon, 10 days
# Experimental: Experiments with a commercially available proton pump inhibitor, sodium pantoprazole sold as Panto IV®, were performed in healthy young Wistar rats.
# Although Panto IV is highly specific for the proton pumps of the parietal cells, it was hypothesized that it may non-specifically affect other proton pumps, including the osteoclast proton pump. A commercially available calcium phosphate material, Calcibon, was also used which is less resorbable than the previously used CAP to determine whether the strategy for stimulating local bone mass can be used with other materials.
# The CAP material used was Calcibon provided by the Merck Biomaterials/Biomet company. The concentration used was 4 mg Panto IV per/mL of neutral phosphate solution per 500 mg of CAP powder used to prepare the cement. The cement doped with the PPI was then allowed to set, as described previously. The pre-set rods were implanted in young Wistar rats according to the same procedure as described previously.
Compound,resorption of implant in comparison to control material ([1]; throughout 4-month in vivo period),local bone mass around implant ([1]; up to 4 months),"control of CAP cement resorption (dose range study outcome) ([2]; 1.61×10^−4 M Bafilomycin A1 in liquid phase (DMSO solvent), rat femur implant)","amount of new bone surrounding the implant versus control cement ([2]; 1.61×10^−4 M, all specimens studied, young male Wistar rats)","resorption rate of CAP cement in comparison to controls ([2]; 1.61×10^−4 M, histology, young male Wistar rats)","formation of osteoclastic cutting cones into the material ([2]; 1.61×10^−4 M, tissue/material interface)","density of new bone surrounding the cement versus control ([2]; 1.61×10^−4 M, young male Wistar rats)","bone healing around the implant ([2]; highest concentration 2.0×10^−3 M Bafilomycin A1 in liquid phase (methanol solvent), rat femur implant)","response of CAP implanted as paste (resorption, new bone) ([2]; injectable paste, 14 days after implantation, rat femur)","histology / resorption of cement versus control ([2]; lowest concentration 1.61×10^−5 M Bafilomycin A1 in liquid phase (DMSO solvent), rat femur implant)",bone formation around the material doped with PPI (trend) [3],resorption of the material doped with PPI (trend) [3],solubility in DMSO [4],reparative bone mass surrounding the implant versus control [5]
CO/C1=C\C(C)=C\[C@@H](C)[C@@H](O)[C@@H](C)C/C(C)=C/C=C/[C@H](OC)[C@@H]([C@@H](C)[C@@H](O)[C@H](C)[C@@]2(O)C[C@@H](O)[C@H](C)[C@@H](C(C)C)O2)OC1=O [Bafilomycin A1],reduction of the resorption,increased local bone mass,found to work very well,consistently surrounded by more bone than the control cements,decreased the resorption rate,did not form “cutting cones”,appeared to be denser than the bone around the controls,the bone would not heal around the implant,showed the same response as that observed for the pre-set cements,did not differ in histology,increased bone formation,reduced resorption,solubility of Bafilomycin A1 in DMSO was exceeded,–
"COc1ccnc(Cc2nc3cc(OC(F)F)ccc3[nH]2)c1OC [Panto IV, 5-difluoromethoxy-2-[(3,4-dimethoxy-2-pyridinyl)methyl]-1H-benzimidazole]",–,–,–,–,–,–,–,–,–,–,–,–,–,surrounded by higher reparative bone mass than the control
